# From patent US20240360146A1, “BRUTON'S TYROSINE KINASE AND MUTANT DEGRADER, COMPOSITION AND APPLICATION THEREOF” (HANGZHOU HEALZEN THERAPEUTICS CO., LTD., priority 2021, published 2024)
# Molecular target: T1, BTK (Homo sapiens, UniProt Q06187)
# T1 construct: endogenous in cells; host or cells: Mino cells
# Test: BTK degradation activity test in Mino cells
# Format: cell-based
# Conditions: 16 h incubation, Western blot or Elisa
# How it was run: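 Mino cells treated with a concentration series of compound for 16 h, then lysed; total protein by BCA. BTK quantified by Western blot or ELISA, degradation rate calculated against blank control, and DC50 fitted from the degradation curve.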
# T1 sequence (Q06187 whole entry): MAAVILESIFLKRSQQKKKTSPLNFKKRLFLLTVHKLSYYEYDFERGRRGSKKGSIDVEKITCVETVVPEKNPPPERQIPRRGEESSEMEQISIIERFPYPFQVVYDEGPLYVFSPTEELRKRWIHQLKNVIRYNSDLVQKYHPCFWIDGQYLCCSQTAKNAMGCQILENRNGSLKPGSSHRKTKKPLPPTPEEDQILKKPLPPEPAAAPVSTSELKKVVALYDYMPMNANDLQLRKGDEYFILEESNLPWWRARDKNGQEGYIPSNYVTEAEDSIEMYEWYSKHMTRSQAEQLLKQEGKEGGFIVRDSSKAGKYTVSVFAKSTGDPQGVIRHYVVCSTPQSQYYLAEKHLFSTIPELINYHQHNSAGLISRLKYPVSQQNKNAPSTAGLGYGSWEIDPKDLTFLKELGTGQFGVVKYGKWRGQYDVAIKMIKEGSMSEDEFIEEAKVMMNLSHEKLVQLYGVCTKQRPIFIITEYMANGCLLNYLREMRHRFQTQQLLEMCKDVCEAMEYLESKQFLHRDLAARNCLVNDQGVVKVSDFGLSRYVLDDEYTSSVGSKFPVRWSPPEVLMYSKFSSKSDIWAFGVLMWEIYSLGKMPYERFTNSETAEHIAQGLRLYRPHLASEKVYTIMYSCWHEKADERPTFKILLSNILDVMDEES
row,Structure (SMILES),DC50 [nM]
1,"CN1CCN([C@@H]2CCCN(c3nnc(C(N)=O)c(Nc4ccc(N5CCN(CC6CCN(c7ccc8c9c([nH]c8c7)C(=O)N(C7CCC(=O)NC7=O)C9)C6)CC5)c(F)c4)n3)C2)C1=O (stereo partly drawn) [Compound 220, 5-((4-(4-((1-(2-(2,6-dioxopiperidin-3-yl)-3-oxo-1,2,3,4-tetrahydropyrrolo[3,4-b]indol-6-yl)pyrrolidin-3-yl)methyl)piperazin-1-yl)-3-fluorophenyl)amino)-3-((R)-3-(3-methyl-2-oxoimidazolidin-1-yl)piperidin-1-yl)-1,2,4-triazin-6-carboxamide]",< 1
2,"Cc1cc(C#CCN2CCN(c3ccc(Nc4nc(N5CCC[C@@H](N6CCN(C)C6=O)C5)nnc4C(N)=O)cc3F)CC2)ccc1C(=O)NC1CCC(=O)NC1=O (stereo partly drawn) [Compound 226, 5-((4-(4-(3-(4-((2,6-dioxopiperidin-3-yl)carbamoyl)-3-methylphenyl)propan-2-yn-1-yl)piperazin-1-yl)-3-fluorophenyl)amino)-3-((R)-3-(3-methyl-2-oxoimidazolidin-1-yl)piperidin-1-yl)-1,2,4-triazin-6-carboxamide]",< 1
3,"CC1(c2ccc(Nc3nc(N4CCCC(N5CC6CCCCN6C5=O)C4)cnc3C(N)=O)cc2)CCN(C2CN(c3ccc4c(c3)C(=O)N(C3CCC(=O)NC3=O)C4=O)C2)CC1 (centres unmarked) [Compound 006, 3-((4-(1-(1-(2-(2,6-dioxopiperidin-3-yl)-1,3-dioxoisoindol-5-yl)azetidin-3-yl)-4-methylpiperidin-4-yl)phenyl)amino)-5-(3-(3-oxohexahydroimidazo[1,5-a]pyridin-2(3H)-yl)piperidin-1-yl)pyrazin-2-carboxamide]",< 1
4,CN1CCN(C2CCCN(c3nnc(C(N)=O)c(Nc4ccc(N5CCC(N6CCN(CC#Cc7ccc8c(c7)CN(C7CCC(=O)NC7=O)C8=O)CC6)CC5)cc4)n3)C2)C1=O (centres unmarked) [Compound 084],< 1
5,"CN1CCN(C2CCCN(c3nnc(C(N)=O)c(Nc4ccc(C5(C)CCN(C6CN(c7ccc8c(c7)C(=O)N(C7CCC(=O)NC7=O)C8=O)C6)CC5)cc4)n3)C2)C1=O (centres unmarked) [Compound 079, 5-((4-(1-(1-(2-(2,6-dioxopiperidin-3-yl)-1,3-dioxoisoindol-5-yl)azetidin-3-yl)-4-methylpiperidin-4-yl)phenyl)amino)-3-(3-(3-methyl-2-oxoimidazolin-1-yl)piperidin-1-yl)-1,2,4-triazin-6-carboxamide]",< 1
6,"CN1CCN([C@@H]2CCCN(c3nnc(C(N)=O)c(Nc4ccc(N5CCN(CC6CCN(c7ccc(N8CCC(=O)NC8=O)c8c7OCO8)CC6)CC5)c(F)c4)n3)C2)C1=O [Compound 190, (R)-5-((4-(4-((1-(7-(2,4-dioxotetrahydropyrimidin-1(2H)-yl)benzo[d][1,3]dioxacyclopent-4-yl)piperidin-4-yl)methyl)piperazin-1-yl)-3-fluorophenyl)amino)-3-(3-(3-methyl-2-oxoimidazolidin-1-yl)piperidin-1-yl)-1,2,4-triazin-6-carboxamide]",< 1
7,"NC(=O)c1nnc(N2CCCC(N3CCN(c4ccccc4)C3=O)C2)nc1Nc1ccc(C2CCN(CC3CCN(c4ccc5c(c4)C(=O)N(C4CCC(=O)NC4=O)C5=O)CC3)CC2)cc1 (centres unmarked) [Compound 064, 5-((4-(1-((1-(2-(2,6-dioxopiperidin-3-yl)-1,3-dioxoisoindol-5-yl)piperidin-4-yl)methyl)piperidin-4-yl)phenyl)amino)-3-(3-(2-oxo-3-phenylimidazolin-1-yl)piperidin-1-yl)-1,2,4-triazin-6-carboxamide]",< 1
8,"NC(=O)c1ncc(N2CCCC(N3CCN(C4CCCC4)C3=O)C2)nc1Nc1ccc(C2CCN(CC3CCN(c4ccc5c(c4)C(=O)N(C4CCC(=O)NC4=O)C5=O)C3)CC2)cc1 (centres unmarked) [Compound 039, 5-(3-(3-cyclopentyl-2-oxoimidazolin-1-yl)piperidin-1-yl)-3-((4-(1-((1-(2-(2,6-dioxopiperidin-3-yl)-1,3-dioxoisoindolin-5-yl)pyrrolidin-3-yl)methyl)piperidin-4-yl)phenyl)amino)pyrazin-2-carboxamide]",< 1
9,"CN1CCN([C@@H]2CCCN(c3nnc(C(N)=O)c(Nc4ccc(N5CCN(CC#Cc6ccc(NC7CCC(=O)NC7=O)c(F)c6)CC5)c(F)c4)n3)C2)C1=O (stereo partly drawn) [Compound 228, 5-((4-(4-(3-(4-((2,6-dioxopiperidin-3-yl)amino)-3-fluorophenyl)propan-2-yn-1-yl)piperazin-1-yl)-3-fluorophenyl)amino)-3-((R)-3-(3-methyl-2-oxoimidazolidin-1-yl)piperidin-1-yl)-1,2,4-triazin-6-carboxamide]",< 1
10,"CN1CCN([C@@H]2CCCN(c3nnc(C(N)=O)c(Nc4ccc(N5CCN(CC6CCN(c7ccc8c(c7)C(=O)N(C7CCC(=O)NC7=O)C8=O)CC6)CC5)c(F)c4F)n3)C2)C1=O (stereo partly drawn) [Compound 165, 5-((4-(4-((1-(2-(2,6-dioxopiperidin-3-yl)-1,3-dioxoisoindolin-5-yl)piperidin-4-yl)methyl)piperazin-1-yl)-2,3-difluorophenyl)amino)-3-((R)-3-(3-methyl-2-oxoimidazolidin-1-yl)piperidin-1-yl)-1,2,4-triazin-6-carboxamide]",< 1
11,"CN1CCN([C@@H]2CCCN(c3nnc(C(N)=O)c(Nc4ccc(N5CCN(CC6CCN(c7ccc(C(=O)NC8CCC(=O)NC8=O)cn7)CC6)CC5)c(F)c4)n3)C2)C1=O (stereo partly drawn) [Compound 175, 5-((4-(4-((1-(5-((2,6-dioxopiperidin-3-yl)carbamoyl)pyridin-2-yl)piperidin-4-yl)methyl)piperazin-1-yl)-3-fluorophenyl)amino)-3-((R)-3-(3-methyl-2-oxoimidazolidin-1-yl)piperidin-1-yl)-1,2,4-triazin-6-carboxamide]",< 1
12,"CN1CCN(C2CC3CC2N(c2nnc(C(N)=O)c(Nc4ccc(C5CCN(C6CN(c7ccc8c(c7)C(=O)N(C7CCC(=O)NC7=O)C8=O)C6)CC5)cc4)n2)C3)C1=O (centres unmarked) [Compound 103, 5-((4-(1-(1-(2-(2,6-dioxopiperidin-3-yl)-1,3-dioxoisoindol-5-yl)azetidin-3-yl)piperidin-4-yl)phenyl)amino)-3-(6-(3-methyl-2-oxoimidazolin-1-yl)-2-azabicyclo[2.2.1]heptan-2-yl)-1,2,4-triazin-6-carboxamide]",< 1
13,"CN1C(=O)N(C2CCCN(c3cnc(C(N)=O)c(Nc4ccc(C5(C)CCN(C6CN(c7ccc8c(c7)C(=O)N(C7CCC(=O)NC7=O)C8=O)C6)CC5)cc4)n3)C2)C2CCCC21 (centres unmarked) [Compound 008, 3-((4-(1-(1-(2-(2,6-dioxopiperidin-3-yl)-1,3-dioxoisoindol-5-yl)azetidin-3-yl)-4-methylpiperidin-4-yl)phenyl)amino)-5-(3-(3-methyl-2-oxohexahydrocyclopenta[d]imidazol-1(2H)-yl)piperidin-1-yl)pyrazin-2-carboxamide]",< 1
14,"Cc1cc(N2CCC(CN3CCN(c4ccc(Nc5nc(N6CCC[C@@H](N7CCN(C)C7=O)C6)nnc5C(N)=O)cc4F)CC3)C2)ccc1NC1CCC(=O)NC1=O (stereo partly drawn) [Compound 206, 5-((4-(4-((1-(4-((2,6-dioxopiperidin-3-yl)amino)-3-methylphenyl)pyrrolidin-3-yl)methyl)piperazin-1-yl)-3-fluorophenyl)amino)-3-((R)-3-(3-methyl-2-oxoimidazolidin-1-yl)piperidin-1-yl)-1,2,4-triazin-6-carboxamide]",< 1
